Data as given in patent US12545673B2, “Imidazopyridine derivative and pharmaceutical composition comprising same as active ingredient” (TSD LIFE SCIENCES CO., LTD., priority 2019, dated 2026).
Where two headings read alike, the source gives them in different places.

Key:
[1] = tested on: gastric cancer cell line Hs746T; experiment: Cancer cell proliferation inhibitory activity evaluation 2 (CCK-8), Hs746T; type: cell-based; details: Homo sapiens
Description: (§1) In order to identify whether the compounds have anticancer activity, the acute myeloid leukemia cell line U937, the acute lymphoblastic leukemia cell line Jurkat, the gastric cancer cell lines AGS, […], and the human lung cancer cell line A549 were used. The cell line was cultured using RPMI-1640 medium (U937, Jurkat, AGS, A549) or DMEM (Hs746T) medium containing 10% fetal bovine serum. Welgene products were used as the medium, and hyclone products were used for fetal bovine serum, and 1% of antibiotics for cell culture from Gibco were used as the culture medium.

MLK3 = MLK3 (Homo sapiens (Human), UniProt Q16584); experiment: Evaluation of inhibitory activity of enzyme units, MLK3 ([γ-33P]-ATP filter assay); details: read-out: IC50(nM) MLK3
[2] = tested on: gastric cancer cell line AGS; experiment: Cancer cell proliferation inhibitory activity evaluation 2 (CCK-8), AGS; type: cell-based; details: Homo sapiens, read-out: Cancer cell proliferation inhibitory activity AGS
Description: as §1

[3] = tested on: acute myeloid leukemia cell line U937; experiment: Cancer cell proliferation inhibitory activity evaluation 2 (CCK-8), U937; type: cell-based; details: Homo sapiens, read-out: Cancer cell proliferation inhibitory activity U937
Description: as §1

[4] = tested on: human lung cancer cell line A549; experiment: Cancer cell proliferation inhibitory activity evaluation 2 (CCK-8), A549; type: cell-based
Description: as §1

[5] = tested on: acute lymphoblastic leukemia cell line Jurkat; experiment: Cancer cell proliferation inhibitory activity evaluation 2 (CCK-8), Jurkat; type: cell-based; details: Homo sapiens
Description: as §1

[6] = 72 h, read-out: Cancer cell proliferation inhibitory activity Hs746T
[7] = A549, 72 h, read-out: Cancer cell proliferation inhibitory activity A549
[8] = 72 h, read-out: Cancer cell proliferation inhibitory activity Jurkat
[9] = 10 μM, 72 hours, CCK-8, read-out: Cancer cell proliferation inhibitory activity Hs746T
[10] = U-937, 10 μM, 72 hours, CCK-8 (Table 3)
[11] = A549, 10 μM, 72 hours, CCK-8, read-out: Cancer cell proliferation inhibitory activity A549
[12] = 10 μM, 72 hours, CCK-8, read-out: Cancer cell proliferation inhibitory activity Jurkat

MLK3, sequence (Q16584 whole entry, looked up): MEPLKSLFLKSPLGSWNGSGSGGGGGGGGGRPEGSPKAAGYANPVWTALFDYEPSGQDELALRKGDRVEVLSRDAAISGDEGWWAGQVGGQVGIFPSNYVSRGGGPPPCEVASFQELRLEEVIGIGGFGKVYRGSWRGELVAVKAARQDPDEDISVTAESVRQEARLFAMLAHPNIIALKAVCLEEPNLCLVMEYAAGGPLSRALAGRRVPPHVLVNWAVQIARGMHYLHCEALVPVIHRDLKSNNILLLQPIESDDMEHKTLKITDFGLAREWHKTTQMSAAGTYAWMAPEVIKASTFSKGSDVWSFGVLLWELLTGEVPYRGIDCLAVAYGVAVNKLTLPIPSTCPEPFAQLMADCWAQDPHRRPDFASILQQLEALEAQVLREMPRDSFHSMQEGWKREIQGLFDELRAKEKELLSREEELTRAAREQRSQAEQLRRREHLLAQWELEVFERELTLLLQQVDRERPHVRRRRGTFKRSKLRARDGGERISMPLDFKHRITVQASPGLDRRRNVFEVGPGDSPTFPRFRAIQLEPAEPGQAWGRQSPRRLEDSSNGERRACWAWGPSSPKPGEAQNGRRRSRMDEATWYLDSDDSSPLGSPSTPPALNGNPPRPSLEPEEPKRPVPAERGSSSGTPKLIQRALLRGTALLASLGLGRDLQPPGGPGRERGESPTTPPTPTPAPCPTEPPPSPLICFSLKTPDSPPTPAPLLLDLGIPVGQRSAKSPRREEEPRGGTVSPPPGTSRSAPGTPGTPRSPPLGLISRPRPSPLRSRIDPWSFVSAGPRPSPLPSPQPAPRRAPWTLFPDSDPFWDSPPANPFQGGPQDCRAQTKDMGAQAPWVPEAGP

| SMILES | inhibition at 10 µM [1, 6] | IC50 (MLK3) | inhibition at 10 µM ([2]; 72 h) | inhibition at 10 µM ([3]; U-937, 72 h) | inhibition at 10 µM [4, 7] | inhibition at 10 µM [5, 8] | inhibition at 10 µM [1, 9] | inhibition at 10 µM ([2]; 10 μM, 72 hours, CCK-8) | inhibition at 10 µM [3, 10] | inhibition at 10 µM [4, 11] | inhibition at 10 µM [5, 12] |
| --- | --- | --- | --- | --- | --- | --- | --- | --- | --- | --- | --- |
| CCS(=O)(=O)N1CC[C@H](Nc2c(Br)cnc3[nH]c(-c4cc(C)n(-c5cccc(C(=O)NCN(C)C)c5)c4C)nc23)C1 [Example 60, (S)-3-(3-(6-bromo-7-((1-(ethylsulfonyl)pyrrolidine-3-yl)amino)-3H-imidazo[4,5-b]pyridine-2-yl)-2,5-dimethyl-1H-pyrrol-1-yl)-N-((dimethylamino)methyl)benzamide] | > 50% | 27 nM | > 50% | > 50% | > 50% | > 50% |  |  |  |  |  |
| CCS(=O)(=O)N1CC[C@H](Nc2c(Br)cnc3nc(-c4cc(C)n(-c5cc(NC(=O)CCN(C)C)ccc5C)c4C)[nH]c23)C1 [Example 80] |  |  |  |  |  |  | > 50% | > 50% | > 50% | > 50% | > 50% |
| CCS(=O)(=O)N1CC[C@H](Nc2c(Br)cnc3[nH]c(-c4cc(C)n(-c5ccc(C(=O)O)cc5)c4C)nc23)C1 [Example 59, (S)-4-(3-(6-bromo-7-((1-(ethylsulfonyl)pyrrolidine-3-yl)amino)-3H-imidazo[4,5-b]pyridine-2-yl)-2,5-dimethyl-1H-pyrrol-1-yl)benzoic acid] | 10 to 50% | 19 nM | < 10% | 10 to 50% | < 10% | 10 to 50% |  |  |  |  |  |
| CCS(=O)(=O)N1CC[C@H](Nc2c(Br)cnc3[nH]c(-c4cc(C)n(-c5ccc(NS(C)(=O)=O)cc5C)c4C)nc23)C1 [Example 8, N-(4-(3-(6-bromo-7-(((S)-1-(ethylsulfonyl)pyrrolidine-3-yl)amino)-3H-imidazo[4,5-b]pyridine-2-yl)-2,5-dimethyl-1H-pyrrol-1-yl)-3-methylphenyl) methanesulfonamide] | > 50% | 7 nM | > 50% | > 50% | > 50% | > 50% |  |  |  |  |  |
| CCN(CC)CCNC(=O)c1ccc(-n2c(C)cc(-c3nc4ncc(Br)c(N[C@H]5CCN(S(=O)(=O)CC)C5)c4[nH]3)c2C)cc1 [Example 57, (S)-4-(3-(6-bromo-7-((1-(ethylsulfonyl)pyrrolidine-3-yl)amino)-1H-imidazo[4,5-b]pyridine-2-yl)-2,5-dimethyl-1H-pyrrol-1-yl)-N-(2-(diethylamino)ethyl)benzamide] | > 50% | 97 nM | > 50% | > 50% | > 50% | > 50% |  |  |  |  |  |
| CCN(CC)CCNC(=O)c1cccc(-n2c(C)cc(-c3nc4ncc(Br)c(N[C@H]5CCN(S(=O)(=O)CC)C5)c4[nH]3)c2C)c1 [Example 56, (S)-3-(3-(6-bromo-7-((1-(ethylsulfonyl)pyrrolidine-3-yl)amino)-1H-imidazo[4,5-b]pyridine-2-yl)-2,5-dimethyl-1H-pyrrol-1-yl)-N-(2-(diethylamino)ethyl)benzamide] |  | 122 nM |  |  |  |  | > 50% | > 50% | > 50% | > 50% | > 50% |
| CCS(=O)(=O)N1CC[C@H](Nc2c(Br)cnc3[nH]c(-c4cc(C)n(-c5cccc(NS(C)(=O)=O)c5C)c4C)nc23)C1 [Example 9, N-(3-(3-(6-bromo-7-(((S)-1-(ethylsulfonyl)pyrrolidine-3-yl)amino)-3H-imidazo[4,5-b]pyridine-2-yl)-2,5-dimethyl-1H-pyrrol-1-yl)-2-methylphenyl) methanesulfonamide] | > 50% | 10 nM | > 50% | > 50% | > 50% | > 50% |  |  |  |  |  |
